The values that follow come from US9340596B2, “Fusion protein comprising tumor necrosis factor related apoptosis inducing ligand and integrin ligand and use thereof” (NANJING UNIVERSITY, priority 2007, dated 2016).

The test system of data set [1] is COLO-205 colon cancer cells. The data set can be described thus: Anti-tumor efficacy on COLO-205 colon cancer model. The class given is in vivo, nude mice. On the procedure:
(§1) 5-6 week-old female nude mice were purchased from Shanghai Experimental Animal Center. The nude mice were injected through their tail veins with 100 μg of a specific antibody, i.e., purified Asialo GM-1 antibody (Wako Chemicals Inc., Japan) that blocks natural killer cells. After 24 hours, the upper right sides of the back of the nude mice were inoculated subcutaneously with 100,000 COLO-205 or HT-29 colon cancer cells. When the tumors reached 70 mm3, random grouping and treatment began. The recombinant TRAIL and its variant proteins were administered intraperitoneally, once daily for 10-14 days. The water-soluble camptothecin CPT-11 (11-hydroxy-camptothecin; Product Name: Irinotecan Hydrochloride Injection; Pharmacia/Upjohn Company's product) was administered intravenously once a week, two times in total. The recombinant proteins and camptothecin were diluted with a phosphate buffer. The tumor size was measured with a caliper, and the calculation formula was: […].
Two kinds of colon cancer models, COLO-205 and HT-29, were used to test the anti-tumor activity of the TRAIL variant in the athymic nude mice. Because COLO-205 colon cancer cells were sensitive to TRAIL, the therapeutic effect of separate use of TRAIL and TRAIL variant was assessed on this model. On the 8th day after the nude mice were inoculated with tumor cells, administration of drugs through the tail vein began for ten days in succession. The mice were divided into four groups; 100 μg TRAIL variant group, 20 μg TRAIL variant group, 100 μg wild-type TRAIL group, and PBS control group. […] Moreover, the TRAIL variant's inhibition of tumor growth was dose-dependent.
The invention also provides the anti-tumor effect of combined use of TRAIL variant and chemotherapeutic drug CPT-11. Protein injection was carried out by intraperitoneal injection once a day for TRAIL or TRAIL variant, for two weeks total, and intravenous injection once every two days from CPT-11 via tail veins, seven times in total. […] This effect was even better than the higher dose of the TRAIL+CPT-11 combined treatment group ([…]) (89%, P=0.001, 36 days).

For data set [2], the system named is human foreskin microvascular endothelial cells. In words: Cell adhesion assay of human foreskin microvascular endothelial cells on protein-coated wells. The class given is cell-based. On the procedure: The TRAIL and its variant protein are coated on a 96-well PVC plate overnight at 4° C. The coated 96-well plate was rinsed with 0.9% physiological saline, and then blocked for 1 h at 1640 culture medium containing 2% bovine serum albumin, and then rinsed again. After the human foreskin microvascular endothelial cells were digested, washed three times with phosphate buffer and re-suspended into the complete RPMI1640 medium, it was then added to the 96-well plate coated with TRAIL and its variant (40,000 cell per well). After the cells were incubated for 1.5 hours in an incubator containing 5% carbon dioxide, they were washed three times with physiological saline to remove the non-adherent cells. The adherent cells were fixed for 30 min with phosphate buffer solution (pH 7.3) containing 4% formalin and 2% sucrose, and then stained with 0.5% crystal violet. The fixed stained cells were rinsed several times, then dissolved with […] DMSO to test the absorbance values at 540 nm. All the tests should be carried out at least three times independently.

Data set [3] has the same test system. The data set can be described thus: Binding assay of fluorescein-labeled TRAIL and its variant with endothelial cells (flow cytometer). The note with it: fluorescein-labeled protein, flow cytometry. The method, then: The TRAIL and its variant were labeled with fluorescein (Sigma company), and the labeled proteins were separated from free fluorescein through a Sephadex-G25 size exclusion column. After human foreskin microvascular endothelial cells were digested by trypsin, washed twice with ice-cold phosphate buffer containing 2% fetal calf serum, and then re-suspended, they were added with 1 μg of labeled protein for incubation for 1 h at 4° C. The fluorescent-labeled bovine serum albumin was used as a control of the test. After being washed three times, the binding capacity of the stained cells was analyzed with a flow cytometer (Becton Dickinson Company).
For orientation: Flow cytometry measures light scatter and fluorescence of single cells or particles in a stream.

The subject of data set [4] is COLO-205 colon cancer cells. The data set can be described thus: Cell apoptosis, Annexin V and PI double staining, COLO-205. The class given is cell-based. On the procedure: (§2) After the cells treated with TRAIL and its variant were digested with trypsin, they were removed from the cultivation plate, washed twice with phosphate buffer solution, and centrifuged for 5 min at 300 g centrifugal force. The supernatants were removed, and the cells were re-suspended in 100 ul of binding buffer solution. Then, Annexin V-FITC (BD Pharmgen) was added until a final concentration of 2 μg/ml was achieved, followed by incubation at room temperature. After 10 min, 400 ul of binding buffer was added, and the cells were transferred to a flow analysis tube. 1 μg of […] (Sigma Corporation) was added to each tube. The cells were analyzed with a flow cytometer within 30 min. At least three separate tests should be carried out for each cell line.

The next data set concerns Jurkat T lymphoma cells. The data set can be described thus: Cell apoptosis, Annexin V and PI double staining, Jurkat. The format is cell-based. On the procedure: as §2
Data set [5] has as its system MDA-MB-231 breast cancer cells. In words: Cell apoptosis, Annexin V and PI double staining, MDA-MB-231. The class given is cell-based. On the procedure:
as §2

Data set [6] concerns normal human foreskin microvascular endothelial cells. In words: Cell toxicity on normal endothelial cells. The format is cell-based. The note with it: 300 ng/ml, 24 hours. The method, then: (§3) Different from the tumor cells, the normal human foreskin microvascular endothelial cells, 293T kidney cells and primary liver cells were treated with 300 ng/ml of the TRAIL variants or TRAIL for 24 hours.

The next data set relates to 293T kidney cells. The data set can be described thus: Cell toxicity on 293T kidney cells. The note with it: 300 ng/ml, 24 hours. The class given is cell-based. The method, then:
as §3

The next data set has as its system primary liver cells. In words: Cell toxicity on primary liver cells. The format is cell-based. The note with it: 300 ng/ml, 24 hours. The method, then: as §3
Another data set relates to HT-29 colon cancer cells. The data set can be described thus: Anti-tumor efficacy on HT-29 colon cancer model. The note with it: TRAIL-insensitive HT-29 model. The format is in vivo, nude mice. On the procedure:
as §1
The invention also provides the anti-tumor effect of combined use of TRAIL variant and chemotherapeutic drug CPT-11. Protein injection was carried out by intraperitoneal injection once a day for TRAIL or TRAIL variant, for two weeks total, and intravenous injection once every two days from CPT-11 via tail veins, seven times in total. […]

A further data set relates to COLO-205 tumor tissues. The data set can be described thus: Drug distribution test of 125I-labeled recombinant proteins in tumor tissues. The note with it: COLO-205 tumor-bearing nude mice, 240 minutes after injection. The class given is in vivo. The method, then:
Separate injection from tail veins of 100 μl containing […] of 125I-labeled human TRAIL or its variant protein into the COLO-205 tumor bearing nude mice. 5, 30, 60, 120 and 240 minutes after injection, the tumor tissues were peeled off separately and weighed, and the radiation amount of the tumor tissues were measured with a liquid scintillation counter. The amount of radiation in the tumor tissues is represented by the percentage of measuring radiation quantity per gram of tissues and the injected radiation quantity (% ID/g). The results are the average value of three independent tests.
The recombinant TRAIL and the TRAIL variant protein were labeled with a radioisotope of iodine (^125I) using a labeling kit (Pierce Corp.). The labeling results were as follows: the specific activity of ^125I-TRAIL was 7.86 μCi/μg protein, and the specific activity of ^125I-TRAIL variant was 7.49 μCi/μg protein. After the nude mice were inoculated with COLO-205 colon cancer, and when the tumor size reached 400-500 mm3, they were randomly grouped into wild-type and variant group. Each group included five time points: 5 min, 30 min, 60 min, 120 min and 240 min, and each time point included three animals. […] At each time point, the mice were sacrificed, the tumors were dissected by surgery, and the radiation dose was measured through a liquid scintillation counter. […]

Data set [7] has as its system FADD−/− deficient Jurkat cells. In words: Apoptosis induction in FADD-/- deficient Jurkat cells.
Source text: (§4) The fluorescence detection method was used to test the activity of Caspase-8 and Caspase-3 in the Jurkat cells after treatment of TRAIL and TRAIL variants.
The subject of data set [8] is Caspase-8−/− deficient Jurkat cells. The data set can be described thus: Apoptosis induction in Caspase-8-/- deficient Jurkat cells.
Source text: as §4

Regarding `CCc1c2c(nc3ccc(OC(=O)N4CCC(N5CCCCC5)CC4)cc13)-c1cc3c(c(=O)n1C2)COC(=O)[C@]3(O)CC` [CPT-11, reference compound], in [1] (COLO-205, individual injection of low dose CPT-11 (6.25 mg/kg/each), vs PBS control), the “tumor growth inhibition (in words)” value is recorded as “slightly inhibit the tumor growth”.
On to “TRAIL: recombinant wild-type human tumor necrosis factor-related apoptosis-inducing ligand, comparator”, for which the “reduction by free protein of endothelial cells adhered to microplates coated with RGD-L-TRAIL (competitive test)” value in [2] (free protein added to plates coated with TRAIL variant protein) is “has no such ability”. Moreover, the “adhesion of human foreskin microvascular endothelial cells to culture plate wells coated with the protein” value in data set [2] (protein coated on 96-well plate, cells incubated 1.5 hours) is on record as “do not adhere”. Besides, the “binding capacity with human foreskin microvascular endothelial cells” value in [3] is on record as “very weak”. For the same compound, the medial lethal dose amounted to 3.5 ng/mL in [4] (COLO-205), 6.7 ng/mL in the data set with Jurkat T lymphoma cells and 2.3 ng/mL in [5]. Also, the apoptosis rate in [4] (COLO-205 cells, 2.43 ng/ml) came out at 43.7%. For the same compound, the cell toxicity entry (in [6]; in the data set on 293T kidney cells; in the data set on primary liver cells) was “No obvious cell toxicity” throughout. The tumor inhibition rate in data set [1] (COLO-205, 90 μg/day/each combined with CPT-11 6.25 mg/kg/each, 36 days) amounted to 67.8%; in data set [1] (COLO-205, 100 μg, used alone, ten days in succession, 37th day, vs PBS control) it was 37%. Moreover, in data set [1] (COLO-205, 270 μg/day/each + CPT-11 combined treatment), the “mice whose tumors disappeared, among ten animals” value is on record as 6 mice. The tumor inhibition effect in data set [1] (COLO-205, 270 μg/day/each combined with CPT-11 6.25 mg/kg/each, 36 days) was found to be 89%. Moreover, the “dose required for the same therapeutic effect, relative to TRAIL variant” value in data set [1] (COLO-205 models, combined treatment program with CPT-11) is listed as 3-9 times. The “dose required, relative to TRAIL variant” value in the data set on HT-29 colon cancer cells was “at least 2 times”. In addition, the “distribution in the tumor tissues” value in the data set on COLO-205 tumor tissues was “difficult to detect”. Also, the “induction of cell apoptosis” value in data set [7] and in data set [8] was “no induced cell apoptosis” each time.
